Measured values published in article PMC11208742, “5,7,4′‐Trimethoxyflavone triggers cancer cell PD‐L1 ubiquitin–proteasome degradation and facilitates antitumor immunity by targeting HRD1” (MedComm, 2024).
pKd: −log10 of the molar value.

Biological target: T1, HRD1 (HMG-CoA reductase degradation protein 1) (Homo sapiens, UniProt Q86TM6)
T1 construct: gene SYVN1; GFP-tagged wild-type HRD1 expressed in 293T cells, cell lysate (MST); endogenous untagged HRD1 in RKO cell lysate (CETSA)
Assay: microscale thermophoresis, GFP-HRD1
Format: binding

T1 sequence (Q86TM6 whole entry): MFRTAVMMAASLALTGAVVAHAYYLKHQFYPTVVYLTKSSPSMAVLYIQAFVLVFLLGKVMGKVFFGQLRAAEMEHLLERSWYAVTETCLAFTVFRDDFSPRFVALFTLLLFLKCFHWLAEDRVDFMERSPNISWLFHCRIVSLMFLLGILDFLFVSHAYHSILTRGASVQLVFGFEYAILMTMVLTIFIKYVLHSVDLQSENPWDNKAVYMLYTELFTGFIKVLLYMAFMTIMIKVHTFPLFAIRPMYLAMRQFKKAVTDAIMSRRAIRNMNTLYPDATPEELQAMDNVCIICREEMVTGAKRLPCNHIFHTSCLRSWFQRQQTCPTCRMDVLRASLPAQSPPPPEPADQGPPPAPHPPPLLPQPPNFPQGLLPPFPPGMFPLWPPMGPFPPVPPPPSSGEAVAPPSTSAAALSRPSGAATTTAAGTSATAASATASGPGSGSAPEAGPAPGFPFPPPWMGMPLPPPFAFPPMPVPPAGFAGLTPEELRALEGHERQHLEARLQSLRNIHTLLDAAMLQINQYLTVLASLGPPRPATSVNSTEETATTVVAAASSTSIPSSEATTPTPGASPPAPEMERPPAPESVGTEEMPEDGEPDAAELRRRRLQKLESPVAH

COc1ccc(-c2cc(=O)c3c(OC)cc(OC)cc3o2)cc1 [TF]
pKd: 5.10
